# System: LAT condensation in primary mouse T cells
# Assay: Ligand potency for LAT condensation (cumulative distinct LAT condensates per cell)
# Type: cell-based
# Description: Single-molecule TIRF images are taken at the same power dosage (power*exposure) , either by high laser illumination intensity (8 mW) and short exposure time (25 ms) or by low laser illumination intensity (0.4 mW) and long exposure time (500 ms). Single-molecule TIRF images of long exposure time (500 ms) were collected every 2 to 4 s to localize single pMHC-TCR using a laser illumination intensity of 0.4 mW. LAT-eGFP was monitored at 0.4 mW every 2 to 4 s. When cells were imaged to measure LAT condensation only, the cells were imaged as they landed, or within 60 s of landing, for a duration of 300 s. Cells imaged for NFAT-mCherry was done by epifluorescence using 150-ms exposure time every 50 s at 3 and 6 μm above the coverslip to monitor NFAT dynamics. NFAT monitoring continued for 30 min unless otherwise stated.
# LAT condensates were initially tracked with TrackMate’s automated workflows and then each track was manually adjusted for proper linking/detection. A pMHC binding event was considered productive if there existed a LAT condensate trajectory whose first frame of detection could be found within 250 nm of the binding event.
# Data presented in Fig. 5 originated from T cells that were exposed to supported membranes containing 600 molecules μm^−2 of ICAM-1 and 0.5 molecules μm^−2 pMHC after loading MHC with one of the peptides from the panel. […]
sequence,measurement,setting,value
"ANERAELIAYLTQAAEK [T102E, null altered peptide]",rank of productivity in LAT condensate number,"MCC, T102S, ER60, T102E, cumulative time-series Fig. 5b",least
same,LAT signal of null pMHC + ICAM-1 condition,versus ICAM-1 only,did not produce any LAT signal over background levels

# Source: article PMC9718779, “Discrete LAT condensates encode antigen information from single pMHC:TCR binding events” (Nature Communications, 2022)
